According to ChEMBL document CHEMBL1949628, “Discovery of aminopiperidine-based Smac mimetics as IAP antagonists” (Bioorg Med Chem Lett, 2012):

How the values were obtained:
[1] = target: T1, Baculoviral IAP repeat-containing protein 2 (Homo sapiens, UniProt Q13490); experiment: Antagonist activity at GST-tagged BIR3 domain of cIAP1 using AbuRPFK-5FAM after 20 mins by fluorescence polarization assay; format: functional
[2] = target: T1, Baculoviral IAP repeat-containing protein 2; experiment: Antagonist activity at cIAP1 in human MDA-MB-231 cells assessed as cIAP1 degradation after 1 hr by ELISA; format: functional, cell-based
[3] = tested on: MDA-MB-231; experiment: Antiproliferative activity against human MDA-MB-231 cells after 48 hrs by alamar blue assay; format: functional; conditions: MDA-MB-231, 48 h
[4] = target: T2, E3 ubiquitin-protein ligase XIAP (Homo sapiens, UniProt P98170); experiment: Antagonist activity at GST-tagged BIR3 domain of XIAP using AbuRPFK-5FAM after 20 mins by fluorescence polarization assay; format: functional
[5] = Lipophilicity, log D of the compound; format: physicochemical; conditions: octanol/water
[6] = tested on: MDA-MB-231; experiment: Antiproliferative activity against human MDA-MB-231 cells assessed as cell growth at 1.25556 uM after 48 hrs by alamar blue assay relative to control; format: functional; conditions: MDA-MB-231, 48 h, read-out: Activity
[7] = tested on: MDA-MB-231; experiment: Antiproliferative activity against human MDA-MB-231 cells assessed as cell growth at 11.3 uM after 48 hrs by alamar blue assay relative to control; format: functional; conditions: MDA-MB-231, 48 h, read-out: Activity
[8] = tested on: MDA-MB-231; experiment: Antiproliferative activity against human MDA-MB-231 cells assessed as cell growth at 0.41852 uM after 48 hrs by alamar blue assay relative to control; format: functional; conditions: MDA-MB-231, 48 h, read-out: Activity
[9] = tested on: MDA-MB-231; experiment: Antiproliferative activity against human MDA-MB-231 cells assessed as cell growth at 0.13951 uM after 48 hrs by alamar blue assay relative to control; format: functional; conditions: MDA-MB-231, 48 h, read-out: Activity
[10] = tested on: MDA-MB-231; experiment: Antiproliferative activity against human MDA-MB-231 cells assessed as cell growth at 3.76667 uM after 48 hrs by alamar blue assay relative to control; format: functional; conditions: MDA-MB-231, 48 h, read-out: Activity
[11] = tested on: MDA-MB-231; experiment: Antiproliferative activity against human MDA-MB-231 cells assessed as cell growth at 0.0155 uM after 48 hrs by alamar blue assay relative to control; format: functional; conditions: MDA-MB-231, 48 h, read-out: Activity
[12] = tested on: MDA-MB-231; experiment: Antiproliferative activity against human MDA-MB-231 cells assessed as cell growth at 0.00517 uM after 48 hrs by alamar blue assay relative to control; format: functional; conditions: MDA-MB-231, 48 h, read-out: Activity
[13] = tested on: MDA-MB-231; experiment: Antiproliferative activity against human MDA-MB-231 cells assessed as cell growth at 0.00172 uM after 48 hrs by alamar blue assay relative to control; format: functional; conditions: MDA-MB-231, 48 h, read-out: Activity
[14] = tested on: MDA-MB-231; experiment: Antiproliferative activity against human MDA-MB-231 cells assessed as cell growth at 0.0465 uM after 48 hrs by alamar blue assay relative to control; format: functional; conditions: MDA-MB-231, 48 h, read-out: Activity
[15] = target: T2, E3 ubiquitin-protein ligase XIAP; experiment: Binding affinity to GST-tagged BIR3 domain of XIAP by isothermal titration calorimetry

Row | SMILES | IC50 [1] | EC50 [2] | other results
1 | CN[C@@H](C)C(=O)N[C@H](C(=O)N[C@H]1CCCN(CCc2ccccc2OC)C1)C(C)(C)C | 50 nM | 156 nM | –
2 | CN[C@@H](C)C(=O)N[C@H](C(=O)N[C@H]1CCCN(CCc2ccc(F)cc2)C1)C1CCCCC1 | 18 nM | 58 nM | –
3 | CN[C@@H](C)C(=O)N[C@H](C(=O)N[C@H]1CCCN([C@@H]2CCCc3ccccc32)C1)C1CCCCC1 | 1990 nM | – | –
4 | CN[C@@H](C)C(=O)N[C@H](C(=O)N[C@H]1CCCN(CCc2ccc(F)cc2)C1)C(C)(C)C | 20 nM | 60 nM | –
5 | CN[C@@H](C)C(=O)N[C@H](C(=O)N[C@H]1CCN(C(=O)c2ccccc2)C1)C1CCCCC1 | 5020 nM | – | –
6 | CN[C@@H](C)C(=O)N[C@H](C(=O)N[C@H]1CCCN(S(=O)(=O)c2ccccc2)C1)C(C)(C)C | 5750 nM | – | –
7 | CN[C@@H](C)C(=O)N[C@H](C(=O)N[C@H]1CCN(CCc2ccccc2)C1)C1CCCCC1 | 500 nM | – | –
8 | CN[C@@H](C)C(=O)N[C@H](C(=O)N[C@H]1CCCN(CCc2ccc(C)cc2)C1)C(C)(C)C | 30 nM | 60 nM | –
9 | CN[C@@H](C)C(=O)N[C@H](C(=O)N[C@H]1CCCN(CCc2ccccc2)C1)C1CCCCC1 | 40 nM | 113 nM | GI50 [3]: 1010 nM; IC50 [4]: > 8000 nM
10 | CN[C@@H](C)C(=O)N[C@H](C(=O)N[C@H]1CCCN(Cc2ccccc2)C1)C1CCCCC1 | 1690 nM | – | –
11 | CN[C@@H](C)C(=O)N[C@H](C(=O)N1CC[C@H]2CCN(CCc3ccccc3)C[C@H]21)C1CCCCC1 | – | – | logD [5]: 2.61
12 | CN[C@@H](C)C(=O)N[C@H](C(=O)N[C@H]1CCCN(C(=O)OCc2ccccc2)C1)C1CCCCC1 | 450 nM | – | –
13 | CN[C@@H](C)C(=O)N[C@H](C(=O)N[C@H]1CCCN(CCc2ccncc2)C1)C(C)(C)C | 593 nM | > 370 nM | –
14 | CN[C@@H](C)C(=O)N[C@H](C(=O)N[C@H]1CCCN(CCc2ccc(Cl)cc2)C1)C(C)(C)C | 24 nM | 117 nM | –
15 | CN[C@@H](C)C(=O)N[C@H](C(=O)N[C@H]1CCCN(CCc2cccc(OC)c2)C1)C(C)(C)C | 52 nM | 164 nM | –
16 | CN[C@@H](C)C(=O)N[C@H](C(=O)N[C@H]1CCCN(CCc2ccc(O)cc2)C1)C(C)(C)C | 42 nM | 68 nM | –
17 | CN[C@@H](C)C(=O)N[C@H](C(=O)N[C@H]1CCCN(CCc2ccc(C(F)(F)F)cc2)C1)C(C)(C)C | 49 nM | 300 nM | –
18 | CN[C@@H](C)C(=O)N[C@H](C(=O)N[C@H]1CCCN(CCc2ccccc2F)C1)C1CCCCC1 | 33 nM | 104 nM | –
19 | CN[C@@H](C)C(=O)N[C@H](C(=O)N[C@H]1CCCN(CCc2ccccc2)C1)C(C)(C)C | 26 nM | – | –

Row | SMILES | IC50 [1] | EC50 [2] | other results
20 | CN[C@@H](C)C(=O)N[C@H](C(=O)N(C)[C@H]1CCCN(CCc2ccccc2)C1)C1CCCCC1 | 44 nM | – | –
21 | CN[C@@H](C)C(=O)N[C@H](C(=O)N[C@H]1CCCN(CCc2ccccn2)C1)C(C)(C)C | 301 nM | > 370 nM | –
22 | CN[C@@H](C)C(=O)N[C@H](C(=O)N[C@H]1CCCN(C(=O)c2ccccc2)C1)C1CCCCC1 | 3360 nM | – | –
23 | CN[C@@H](C)C(=O)N[C@H](C(=O)N[C@H]1CCN(C(=O)Cc2ccccc2)C1)C1CCCCC1 | 780 nM | – | –
24 | CN[C@@H](C)C(=O)N[C@H](C(=O)N[C@H]1CCCN(CCc2ccc([N+](=O)[O-])cc2)C1)C(C)(C)C | 32 nM | 60 nM | –
25 | CN[C@@H](C)C(=O)N[C@H](C(=O)N[C@H]1CCCN(CCc2c[nH]c3ccccc23)C1)C(C)(C)C | 115 nM | 185 nM | –
26 | CN[C@@H](C)C(=O)N[C@H](C(=O)N[C@H]1C[C@@H]2CC[C@H]1N(CCc1ccccc1)C2)C1CCCCC1 | 4 nM | 5 nM | GI50 [3]: 100 nM; growth at 1.25556 µM [6]: -12.2%; growth at 11.3 µM [7]: 8.61%; IC50 [4]: 365 nM; logD [5]: 1.64; growth at 0.41852 µM [8]: 3.61%; growth at 0.13951 µM [9]: 37.5%; growth at 3.76667 µM [10]: -11%; growth at 0.0155 µM [11]: 84%; growth at 0.00517 µM [12]: 82.2%; growth at 0.00172 µM [13]: 97%; growth at 0.0465 µM [14]: 73.5%; Kd [15]: 900 nM
27 | CN[C@@H](C)C(=O)N[C@H](C(=O)N[C@H]1CCN(Cc2ccccc2)C1)C1CCCCC1 | 3380 nM | – | –
28 | CN[C@@H](C)C(=O)N[C@H](C(=O)N[C@H]1CCCCN(CCc2ccccc2)C1)C1CCCCC1 | 80 nM | – | –
29 | CN[C@@H](C)C(=O)N[C@H](C(=O)N[C@H]1CCCCN(Cc2ccccc2)C1)C1CCCCC1 | 270 nM | – | –
30 | CN[C@@H](C)C(=O)N[C@H](C(=O)N[C@H]1CCN(CCCc2ccccc2)C1)C1CCCCC1 | 740 nM | – | –
31 | CN[C@@H](C)C(=O)N[C@H](C(=O)N[C@H]1CCCN(CCc2cccc(F)c2)C1)C1CCCCC1 | 68 nM | 279 nM | –
32 | CN[C@@H](C)C(=O)N[C@H](C(=O)N[C@H]1CCN(C(=O)OCc2ccccc2)C1)C1CCCCC1 | 740 nM | – | –
33 | CN[C@@H](C)C(=O)N[C@H](C(=O)N[C@H]1CCCN(CCCc2ccccc2)C1)C1CCCCC1 | 790 nM | – | –
34 | CN[C@@H](C)C(=O)N[C@H](C(=O)N[C@H]1CCCN(CCc2ccc(Br)cc2)C1)C(C)(C)C | 24 nM | 71 nM | –
35 | CN[C@@H](C)C(=O)N[C@H](C(=O)N[C@H]1CCCN(C(=O)Cc2ccccc2)C1)C1CCCCC1 | 130 nM | – | –
36 | CN[C@@H](C)C(=O)N[C@H](C(=O)N[C@H]1CCCN(S(=O)(=O)Cc2ccccc2)C1)C(C)(C)C | 3890 nM | – | –
37 | CN[C@@H](C)C(=O)N[C@H](C(=O)N[C@H]1CCCN(CCc2ccc(OC)cc2)C1)C(C)(C)C | 90 nM | 158 nM | –
38 | CN[C@@H](C)C(=O)N[C@H](C(=O)N[C@H]1CCCN(CC(c2ccccc2)c2ccccc2)C1)C1CCCCC1 | 62 nM | – | –
